How the values were obtained:
MCF10A cells = experiment: WST-1 proliferation assay, MCF10A; assay type: cell-based, human; settings: 5 days of treatment
Description: (§1) WST-1 reagent from Roche Applied Sciences (11644807001) was used to measure cell number before drug addition and after 3 or 5 days of growth as described previously. Cells were seeded in 96-well plates at the following number of cells per well: HeLa (2000), MCF7 (2000), ZR-75-1 (1000), MCF10A (1000), MDA-MB-231(5000). DMSO was used at 0.1%. Relative absorbance was calculated by subtracting the average background (media only) signal, dividing by the average signal on day 0, and then dividing by the average day 5/day 0 ratio for the DMSO controls. Significance was calculated by unpaired, two-tailed student's t-test using GraphPad Prism 6.0 software.

MCF7 cells = experiment: WST-1 proliferation assay, MCF7; assay type: cell-based, human; settings: MCF7, after 3 days
Description: as §1

[1] = test system: H3K4 methylation in MCF7 cells; experiment: Western blot of global H3K4 methylation, MCF7; assay type: cell-based, human; settings: 48 hr
Description: (§2) Cells were lysed as described previously. Histones were separated by centrifugation, resuspended in Laemmeli buffer, and sonicated. Protein concentration of cell lysates was measured by Bradford assay. Samples in Laemmeli buffer were boiled 10 minutes at 95°C and loaded onto 7% (whole cell lysates) or 18% (histones) SDS-PAGE gels. Membranes were blocked in 4% non-fat milk in Tris-buffered saline with 0.05% Tween (TBS-T) and incubated with primary antibodies in the same buffer or 5% bovine serum albumin in TBS-T overnight at 4°C. Membranes were incubated with secondary anti-rabbit or anti-mouse antibodies for one hour at room temperature. Blots were visualized by Thermo Scientific Pierce ECL Western Blotting Substrate (32106) or EMD Millipore Immobilon Western Chemiluminescent HRP Substrate (WBKLS0100) on film. Signal was quantified using ImageJ software.

HeLa cells [2] = experiment: WST-1 proliferation assay, HeLa; assay type: cell-based, human; settings: after 3 days
Description: as §1

MDA-MB-231 cells = experiment: WST-1 proliferation assay, MDA-MB-231; assay type: cell-based, human; settings: MDA-MB-231, 5 days of treatment
Description: as §1

HeLa cells [3] = experiment: Colony formation assay, HeLa; assay type: cell-based, human; settings: two-week treatment, 50 or 100 μM
Description: (§3) Cells were seeded in 6-well plates at low density: HeLa, MCF7, BT474, and PC9 cells at 1000, 2000, 2500, and 2000 cells/well respectively. Media containing the prescribed drugs or 0.1% DMSO was replaced every 3 days. Trastuzumab was used at 5 μg/ml. Gefitinib was used at 2 μM. YUKA1 was used at 50 or 100 μM. Doxycycline was used at 1 μg/ml for 3 days. After 7–42 days depending on the rate of cell growth, cells were fixed in 4% para-formaldehyde in phosphate-buffered saline for 10 minutes rocking at room temperature. They were incubated in 0.05% crystal violet in double-distilled water for 30 minutes rocking at room temperature, washed with water, and dried 24 hours before photographing. ColonyArea, a plugin for ImageJ software, was used for quantification. Unpaired, two-tailed student's t-test calculated using GraphPad Prism 6.0 software was used to determine significance.

BT474 cells = experiment: Colony formation assay, BT474 (trastuzumab tolerance); assay type: cell-based, human
Description: as §3

FLAG-KDM5C = molecular target: T1, FLAG-KDM5C (Homo sapiens, UniProt P41229); experiment: AlphaScreen KDM5C demethylation assay; assay type: biochemical
T1 construct: Full-length FLAG-KDM5B, FLAG-KDM5C, and His-FLAG-KDM6A production was detailed previously; FLAG (N); made in house
T1 sequence (P41229 whole entry): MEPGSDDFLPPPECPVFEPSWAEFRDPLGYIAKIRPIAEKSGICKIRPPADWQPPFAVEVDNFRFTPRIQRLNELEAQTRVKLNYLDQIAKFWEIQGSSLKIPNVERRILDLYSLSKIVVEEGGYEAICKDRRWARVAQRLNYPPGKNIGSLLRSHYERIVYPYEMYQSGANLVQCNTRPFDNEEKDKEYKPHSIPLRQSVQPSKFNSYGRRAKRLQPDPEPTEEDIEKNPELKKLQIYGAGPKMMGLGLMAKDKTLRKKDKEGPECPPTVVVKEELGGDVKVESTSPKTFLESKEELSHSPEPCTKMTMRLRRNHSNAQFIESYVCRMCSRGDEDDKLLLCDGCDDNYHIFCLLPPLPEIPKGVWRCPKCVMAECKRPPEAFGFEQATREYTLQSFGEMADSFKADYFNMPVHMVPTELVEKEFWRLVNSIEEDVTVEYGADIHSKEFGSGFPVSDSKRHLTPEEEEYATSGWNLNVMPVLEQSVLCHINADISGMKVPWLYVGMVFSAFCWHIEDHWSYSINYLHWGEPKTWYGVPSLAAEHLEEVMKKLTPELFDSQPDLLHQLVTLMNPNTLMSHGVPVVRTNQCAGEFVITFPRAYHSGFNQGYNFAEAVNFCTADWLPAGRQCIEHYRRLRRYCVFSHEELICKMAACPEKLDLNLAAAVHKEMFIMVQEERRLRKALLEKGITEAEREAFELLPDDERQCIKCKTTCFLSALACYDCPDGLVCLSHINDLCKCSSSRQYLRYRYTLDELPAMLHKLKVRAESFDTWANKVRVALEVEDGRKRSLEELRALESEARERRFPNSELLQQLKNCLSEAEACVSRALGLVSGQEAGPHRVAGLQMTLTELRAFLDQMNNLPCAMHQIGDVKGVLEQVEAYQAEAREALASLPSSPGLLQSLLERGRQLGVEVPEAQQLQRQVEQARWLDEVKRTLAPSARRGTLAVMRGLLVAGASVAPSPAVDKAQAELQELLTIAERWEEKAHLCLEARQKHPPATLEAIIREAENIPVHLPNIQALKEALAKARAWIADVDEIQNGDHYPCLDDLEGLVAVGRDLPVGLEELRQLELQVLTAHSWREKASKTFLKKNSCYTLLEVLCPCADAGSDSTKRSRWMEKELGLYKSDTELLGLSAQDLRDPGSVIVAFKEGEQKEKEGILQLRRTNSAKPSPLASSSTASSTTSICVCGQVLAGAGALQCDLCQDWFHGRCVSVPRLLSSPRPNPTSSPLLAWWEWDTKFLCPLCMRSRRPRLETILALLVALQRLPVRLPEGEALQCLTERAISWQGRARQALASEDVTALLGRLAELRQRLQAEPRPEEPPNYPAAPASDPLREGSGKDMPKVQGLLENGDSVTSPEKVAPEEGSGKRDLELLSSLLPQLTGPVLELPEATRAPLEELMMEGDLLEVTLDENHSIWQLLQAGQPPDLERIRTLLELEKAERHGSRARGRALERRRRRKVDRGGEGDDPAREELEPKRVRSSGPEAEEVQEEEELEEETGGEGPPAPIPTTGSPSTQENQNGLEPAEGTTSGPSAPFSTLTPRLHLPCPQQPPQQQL
Description: (§4) Histone demethylase assays were performed as described previously, with the exception of all enzyme reactions containing 125 μM α-KG. Enzymes were used at the following approximate concentrations in validation experiments, chosen based on their activity in AlphaScreen assays: 19 nM FLAG-KDM5A, 15 nM FLAG-KDM5B, 6 nM FLAG-KDM5C, 29 nM His-FLAG-KDM6A, and 16 nM FLAG-KDM6B. 24 nM FLAG-KDM5A was used for Km determination experiments. Reactions were carried out for 1 hour, or were stopped by addition of 30 mM EDTA every 5 minutes for determining enzyme kinetics. Km values were calculated using the Michaelis-Menten non-linear regression analysis on GraphPad Prism 6.0 software. The concentration of DMSO in demethylation reactions was 0.05%. For reactions with catalase, catalase (Sigma C30) or an equal volume of dilution buffer was added to the peptide-containing buffer before addition of the demethylase. The final concentration of catalase in the reactions was 0.01 mg/ml.
(§5) The AlphaScreen general IgG (protein A) detection kit from PerkinElmer Life Sciences was used as described previously. The luminescence emission was recorded at 570 nm using the AlphaScreen optic module on a Pherastar (BMG Labtech) or Envision (PerkinElmer Life Sciences) microplate reader.

[4] = test system: H3K4 methylation in MCF10A cells; experiment: Western blot of global H3K4 methylation, MCF10A; assay type: cell-based, human; settings: 72 hr treatment
Description: as §2

[5] = molecular target: T2, FLAG-KDM6B (1043-1682) (JMJD3) (Homo sapiens, UniProt O15054); experiment: AlphaScreen KDM6B demethylation assay; assay type: biochemical
T2 construct: FLAG-KDM6B (1043-1682) was purchased from BPS Bioscience (50115); FLAG (N); purchased BPS Bioscience 50115
T2 sequence (O15054 1043-1682 isoform O15054-1): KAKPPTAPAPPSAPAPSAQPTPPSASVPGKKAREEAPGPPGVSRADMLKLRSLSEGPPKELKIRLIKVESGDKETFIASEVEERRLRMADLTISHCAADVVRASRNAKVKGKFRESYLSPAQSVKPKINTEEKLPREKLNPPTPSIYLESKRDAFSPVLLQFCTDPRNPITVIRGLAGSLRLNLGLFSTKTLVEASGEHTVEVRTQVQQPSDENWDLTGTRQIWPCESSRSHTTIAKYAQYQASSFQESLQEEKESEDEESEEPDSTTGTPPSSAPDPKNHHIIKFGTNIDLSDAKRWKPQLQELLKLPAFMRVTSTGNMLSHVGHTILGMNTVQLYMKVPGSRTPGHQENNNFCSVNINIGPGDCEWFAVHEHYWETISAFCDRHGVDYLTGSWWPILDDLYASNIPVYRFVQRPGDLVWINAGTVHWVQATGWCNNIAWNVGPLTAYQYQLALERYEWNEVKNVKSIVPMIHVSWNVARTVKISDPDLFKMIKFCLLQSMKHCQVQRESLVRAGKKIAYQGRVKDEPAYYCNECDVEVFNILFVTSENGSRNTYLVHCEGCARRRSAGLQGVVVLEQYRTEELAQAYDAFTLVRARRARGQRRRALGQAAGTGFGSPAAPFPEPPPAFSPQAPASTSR
Description: as §4, §5

ZR-75-1 cells = experiment: WST-1 proliferation assay, ZR-75-1; assay type: cell-based, human; settings: ZR-75-1, 5 days of treatment
Description: as §1

PC9 cells = experiment: Colony formation assay, PC9 (gefitinib tolerance); assay type: cell-based, human
Description: as §3

- fold less active against KDM5C (than KDM5A) (FLAG-KDM5C): ~ 3 fold
- IC50 (FLAG-KDM5C; AlphaScreen): 7.12 µM
- IC50 [5]: > 50 µM
Compound: C=CCOc1c(CNn2cnnc2S)cccc1OC [YUKA1, 4-([2-(allyloxy)-3-methoxybenzyl]amino)-4H-1,2,4-triazole-3-thiol]
- cell proliferation (MCF10A cells): did not hinder cell proliferation
- proliferation (MCF7 cells): not affected
- H3K4me3 Fold (H3K4me3/Total H3, normalized to DMSO) ([1]; MCF7, 50 μM): 0.8
- H3K4me3 Fold (H3K4me3/Total H3, normalized to DMSO) ([1]; MCF7, 100 μM): 0.8
- proliferation relative to DMSO-treated cells (HeLa cells [2]): less than half of DMSO-treated cells
- decrease in cell proliferation (MDA-MB-231 cells): 10–15%
- number of colonies formed compared to DMSO (HeLa cells [3]): significantly reduced
- cell growth, compound alone (BT474 cells; BT474, 35 days): not changed
- emergence of colonies under trastuzumab (BT474 cells; BT474, plus 5 μg/ml trastuzumab, 42 days): significantly less
- H3K4 methylation levels [4]: did not affect H3K4 methylation levels
- cell proliferation (ZR-75-1 cells): decreased cell proliferation
- cell growth, compound alone (PC9 cells; PC9, 7 days): not significantly affected
- colony formation during long-term gefitinib treatment (PC9 cells; PC9, plus 2 μM gefitinib, 35 days): fewer YUKA1-treated cells formed colonies

— publication PMC5129982, “Screen-identified selective inhibitor of lysine demethylase 5A blocks cancer cell growth and drug resistance” (Oncotarget, 2016)
